Measurements taken from ChEMBL document CHEMBL1201862, “PubChem BioAssay data set” (2004).
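Five concentrations, 48 hours, 96-well plates. GI50: concentration for 50% inhibition of growth.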 The source made the active and inactive calls. Rule as the data show it: active = GI50 up to about 1.1 µM and inactive = higher.

How the values were obtained:
Experiment in all cases: NCI tumour cell line growth inhibition, 48 h
SK-MEL-5 = system: SK-MEL-5
OVCAR-8 = system: OVCAR-8
HOP-62 = system: HOP-62
HT-29 = system: HT-29
RPMI-8226 = system: RPMI-8226
NCI-H460 = system: NCI-H460
U-251 = system: U-251
HOP-92 = system: HOP-92
SNB-75 = system: SNB-75
SF-295 = system: SF-295
OVCAR-4 = system: OVCAR-4
HL-60 = system: HL-60
M14 = system: M14
HCT-116 = system: HCT-116
K562 = system: K562
NCI-H23 = system: NCI-H23
HCC 2998 = system: HCC 2998

Measured: GI50

O=C(O)c1c[nH]cc1C(=O)O
inactive: SK-MEL-5 > 100 µM | OVCAR-8 > 100 µM | HOP-62 > 100 µM | HT-29 > 100 µM | RPMI-8226 > 100 µM | NCI-H460 > 100 µM | U-251 > 100 µM | HOP-92 > 100 µM | SNB-75 96.4 µM | SF-295 > 100 µM | OVCAR-4 > 100 µM | HL-60 > 100 µM | M14 > 100 µM | HCT-116 > 100 µM | K562 > 100 µM | NCI-H23 > 100 µM

OCc1ccc2[n+](c1)CCC1c3ccccc3NC21 (stereo unspecified)
inactive: SK-MEL-5 86.9 µM | OVCAR-8 > 300 µM | HOP-62 > 300 µM | HT-29 > 300 µM | RPMI-8226 > 300 µM | HCC 2998 > 300 µM | NCI-H460 > 300 µM | U-251 > 300 µM | HOP-92 230 µM | SF-295 > 300 µM | HL-60 > 300 µM | HCT-116 > 300 µM | K562 > 300 µM | NCI-H23 > 300 µM

Cc1ccc(C(=O)N2CCCCC2)cc1/N=N/N(C)C
inactive: SK-MEL-5 > 100 µM | OVCAR-8 > 100 µM | HOP-62 > 100 µM | HT-29 > 100 µM | RPMI-8226 > 100 µM | HCC 2998 > 100 µM | NCI-H460 > 100 µM | SNB-75 > 100 µM | SF-295 > 100 µM | OVCAR-4 > 100 µM | HL-60 > 100 µM | M14 > 100 µM | HCT-116 > 100 µM | K562 > 100 µM | NCI-H23 > 100 µM

CCc1cccc(C)c1NC(=O)CCc1nnc(S)[nH]1
inactive: SK-MEL-5 > 100 µM | OVCAR-8 > 100 µM | HOP-62 > 100 µM | HT-29 > 100 µM | RPMI-8226 > 100 µM | HCC 2998 > 100 µM | NCI-H460 > 100 µM | U-251 > 100 µM | HOP-92 > 100 µM | SF-295 > 100 µM | OVCAR-4 > 100 µM | HL-60 > 100 µM | M14 > 100 µM | HCT-116 > 100 µM | K562 > 100 µM | NCI-H23 > 100 µM

Cc1nc(-n2nc(-c3ccccc3)cc2-c2ccccc2)sc1C(=O)/C=C/c1ccccc1
inactive: SK-MEL-5 23.5 µM | OVCAR-8 > 100 µM | HOP-62 > 100 µM | HT-29 > 100 µM | RPMI-8226 > 100 µM | HCC 2998 > 100 µM | NCI-H460 > 100 µM | U-251 > 100 µM | HOP-92 70.1 µM | SNB-75 6.58 µM | SF-295 > 100 µM | HL-60 60.4 µM | K562 49.8 µM | NCI-H23 > 100 µM

O=C(Nc1ccc([N+](=O)[O-])cc1)C1C(=O)C(=O)N(c2ccc([N+](=O)[O-])cc2)C1=O (stereo unspecified)
inactive: SK-MEL-5 12 µM | OVCAR-8 > 100 µM | HOP-62 > 100 µM | HT-29 > 100 µM | RPMI-8226 46.5 µM | HCC 2998 > 100 µM | NCI-H460 34.5 µM | U-251 > 100 µM | HOP-92 > 100 µM | SNB-75 > 100 µM | SF-295 80.2 µM | HL-60 > 100 µM | M14 16.2 µM | HCT-116 80.2 µM | K562 8.07 µM | NCI-H23 > 100 µM

CCCCNC1=C(C(=O)OCC)/C(=N/NC(=O)c2ccccc2O)CO1
inactive: SK-MEL-5 29.2 µM | OVCAR-8 95.1 µM | HOP-62 17.6 µM | RPMI-8226 86.7 µM | HCC 2998 34.4 µM | NCI-H460 33.3 µM | U-251 20.1 µM | SNB-75 1.73 µM | SF-295 76.6 µM | OVCAR-4 19.4 µM | HL-60 24.8 µM | M14 37.2 µM | HCT-116 6.68 µM | K562 13.2 µM | NCI-H23 18.8 µM

CCOP(=O)(C/C(O)=C1\C(=O)C(CCCCNC(=O)OC(C)(C)C)N(Cc2ccccc2)C1=O)OCC (stereo unspecified)
inactive: SK-MEL-5 > 100 µM | OVCAR-8 > 100 µM | HOP-62 > 100 µM | HT-29 > 100 µM | RPMI-8226 > 100 µM | HCC 2998 > 100 µM | NCI-H460 > 100 µM | U-251 > 100 µM | SNB-75 > 100 µM | SF-295 > 100 µM | OVCAR-4 94.2 µM | HL-60 63.7 µM | M14 > 100 µM | HCT-116 > 100 µM | K562 > 100 µM | NCI-H23 > 100 µM

CC1CC(=O)CC[C@@H]1OCc1ccccc1 (stereo partly specified)
inactive: SK-MEL-5 > 100 µM | OVCAR-8 > 100 µM | HOP-62 > 100 µM | HT-29 > 100 µM | RPMI-8226 47 µM | HCC 2998 > 100 µM | NCI-H460 > 100 µM | U-251 > 100 µM | SNB-75 > 100 µM | SF-295 > 100 µM | OVCAR-4 > 100 µM | HL-60 > 100 µM | M14 > 100 µM | HCT-116 81.3 µM | K562 58.1 µM | NCI-H23 > 100 µM

CC(C)c1cccc(C(C)C)c1NC(=O)C(=O)C(C(=O)c1ccccc1-c1ccccc1)C1OC(=O)c2ccccc21 (stereo unspecified)
inactive: SK-MEL-5 15.5 µM | OVCAR-8 13.7 µM | HT-29 17.9 µM | RPMI-8226 32.6 µM | HCC 2998 17.6 µM | NCI-H460 15 µM | U-251 12.8 µM | SF-295 16.6 µM | OVCAR-4 16 µM | HCT-116 24.9 µM | K562 21.4 µM | NCI-H23 1.25 µM

CC(=O)CCCCCCCCCCCC[C@@H]1CC[C@H](C)[C@H](O)N1
inactive: SK-MEL-5 46.9 µM | OVCAR-8 > 100 µM | HOP-62 > 100 µM | HT-29 38.3 µM | RPMI-8226 > 100 µM | HCC 2998 > 100 µM | NCI-H460 > 100 µM | U-251 > 100 µM | HOP-92 > 100 µM | SNB-75 89.1 µM | SF-295 > 100 µM | HL-60 43.4 µM | M14 53.5 µM | HCT-116 > 100 µM | K562 > 100 µM | NCI-H23 > 100 µM

COc1cccc(NC(=S)Nn2c(C)nc3ccccc3c2=O)c1
inactive: SK-MEL-5 > 100 µM | OVCAR-8 > 100 µM | HOP-62 > 100 µM | HT-29 > 100 µM | RPMI-8226 > 100 µM | NCI-H460 > 100 µM | U-251 > 100 µM | HOP-92 > 100 µM | SNB-75 > 100 µM | SF-295 > 100 µM | OVCAR-4 > 100 µM | HL-60 > 100 µM | M14 > 100 µM | HCT-116 > 100 µM | K562 > 100 µM | NCI-H23 > 100 µM

CCN(CC)CCNC(=O)c1cccc2cc3ccccc3nc12
inactive: SK-MEL-5 4.52 µM | OVCAR-8 6 µM | HOP-62 10.4 µM | HT-29 3.95 µM | HCC 2998 5.89 µM | NCI-H460 2.88 µM | U-251 5.01 µM | HOP-92 4.78 µM | SNB-75 7.71 µM | SF-295 7.23 µM | HL-60 4.8 µM | M14 5.9 µM | HCT-116 3.52 µM | K562 3.72 µM
